This series is described as follows: Dissolution of THCA crystalline powder in distilled water at different pH. It counts as physicochemical. As for the experimental part:
50 mgs of high purity (>99% by weight) THCA crystalline powder was added to 250 ml of distilled water at a pH of 6.5.
The distilled water and THCA from Comparative Example 1 was brought to a pH of 9.5 through the addition of a base and warmed to 40° C.

Molecules are shown by their SMILES.

`CCCCCc1cc2c(c(O)c1C(=O)O)[C@@H]1C=C(C)CC[C@H]1C(C)(C)O2` [THCA, tetrahydrocannabinolic acid]: where the note is “50 mgs in 250 ml distilled water, pH 6.5, heated to 100° C.”, the “Dissolution in distilled water after heating” value is recorded as “still did not dissolve”. For the setting “50 mgs in 250 ml distilled water, pH 6.5, immediately and after stirring”, the “Dissolution in distilled water” value is listed as “did not immediately dissolve, not did it dissolve after stirring”. Where the note is “50 mgs in 250 ml water, pH 9.5 by addition of a base, warmed to 40° C.”, the “Dissolution in alkaline water” value is “dissolved into solution and produced a clear aqueous solution”. Further, the “Solution stability after cooling” value (pH 9.5 solution cooled to room temperature) is “the solution remained clear”.

The values are drawn from patent publication US12336554B2, “Cannabinoid acid beverage” (CHEMTOR, LP, priority 2020, dated 2025).
